From US20230241000A1, “GSK3 INHIBITOR-LOADED NANO FORMULATIONS AS A CANCER IMMUNOTHERAPEUTIC” (The Regents of the University of California, priority 2020, published 2023)

How the values were obtained:
[1] = Maximum tolerated dose study of free AZD1080; format: in vivo; conditions: one-time tail vein injection, 5 to 25.3 mg/kg, weights recorded 14 days; listed as free AZD1080
Method: Dotted lines represent thresholds for toxicity (−15%) and weight loss requiring euthanasia (20%). Body weight changes are relative to individual mouse initial weights. N=4 mice per group, error bars are SEM.
In order to establish a safe working concentration for murine experiments on AZD1080, we used a previously established dose of 5 mg/kg for the treatment of an Alzheimer's-like disease process in rats (29) for planning of a maximum tolerated dose assessment (FIG. 14). […] This prompted us to continue the use of the established dose of 5 mg/kg, for a total of three injections in our animal studies.
The maximum tolerated dose of AZD1080 was determined using a protocol from the National Cancer Institute (72). C57BL/6 mice were injected with AZD1080 solutions via tail vein (100 μL) and weights were recorded daily for 14 days. AZD1080 was solubilized in 30% PEG400, 0.5% Tween-80, 5% polyethylene, and 64.5% 1×PBS. The injected amounts of AZD1080 were 5, 7.5, 11.25, 16.87, or 25.31 mg/kg per mouse, n=4 mice per group.

[2] = humans; literature (15); cited from earlier work
MC38 colon cancer = assay: MC38 syngeneic colon cancer model, subcutaneous tumor growth; format: in vivo, C57BL/6 mice
Method: Treatment was repeated every three days for a total of three administrations. Mice were sacrificed four days after the final treatment. The study was executed as two separate experiments, using animal group sizes of n=6 and n=9, respectively. […] The first set of analyses was performed on the tumor volume growth curves (FIG. 5, panel A), impact on final tumor volumes (FIG. 5, panel B) and tumor weight (FIG. 5, panel C) at the time of sacrifice.
MC38 cells, stably transfected with a luciferase vector, were inoculated into the right flank of C57BL/6 mice, using 0.7×10^6 cells in 40% Matrigel 1×PBS solution. Tumors were allowed to grow to a size of ˜50 mm^3 prior to the initiation of treatment, approximately 14 days after initial inoculation. Mice with outlier tumor sizes (either too small or too large) were excluded from further study. The remaining animals were randomly assigned to the different treatment groups. Mice were treated with three injections, set three days apart, and were sacrificed 4 days after the final treatment administration. […] Two separate experiments were performed, the first with n=6 mice per group and the second with n=9 animals.

Pdcd1 expression = assay: RT-qPCR of Pdcd1 in anti-CD3 activated primary murine T-cells; format: cell-based, C57BL/6 mouse; conditions: 10 μM, 72 hours, normalized against Gapdh
Method: This is compatible with the translational expression of T-bet, a transcription factor that interferes in PD-1 expression (FIG. 1, panel B).
Wells of a 96-well tissue culture plate were coated with anti-mouse CD3 antibody (Ultra-LEAF, Biolegend). 7.5 μL of 1 mg/mL antibody solution was diluted in 1 mL of 1×PBS, before 50 μL of the dilution was added to each plate well for 2 hours at 37° C. The wells were then thoroughly washed 3× with 1×PBS.
T-cells were extracted from C57BL/6 mouse spleens, using a standard procedure with minor modifications (71). Two mouse spleens were mechanically disrupted and the released cells were passed through a 70 μm filter. Red blood cells were lysed using RBC lysis buffer (eBioscience) at 4° C. for 5 minutes. 10 mL of 1×PBS was added to stop the lysis process, following which cells were pelleted at 300×g for 5 minutes. […]
Cells were collected and RNA was extracted using Direct-zol RNA MiniPrep Plus kits (Zymo), as per the manufacturer's instructions. Extracted RNA was converted into cDNA using SuperScript III First-Strand Synthesis System kits (Invitrogen). cDNA from treated T-cells was analyzed by RT-PCR using a LightCycler 480 instrument (Roche) and the LightCycler 480 SYBR Green I Master kit (Roche), per manufacturer's instructions. cDNA was analyzed using forward and reverse primers for Pdcd1, Tbx21, and Gapdh as a control, as described previously (10, 14). […]

[3] = Safety analysis in MC38 mice (animal weight, blood chemistry, organ H&E histology); format: in vivo, C57BL/6 mice; conditions: serum at sacrifice
Method: While there is sparse literature on the use of AZD1080 in animal studies, this agent had to be discontinued in a phase I clinical trial in humans due to nephrotoxicity (15).
The histology preparation and staining of tumor tissue and mouse organs was performed in the Pathology Core Facility of the UCLA Jonsson Comprehensive Cancer Center. Tissues were fixed in 10% neutral-buffered formalin for 24 hours, then gradually dehydrated in 25-75% ethanol solutions over 3 days. Tissues were embedded in paraffin, sectioned at 4 μm thickness, and stained by anti-CD8, anti-cleaved caspase 3, anti-perforin, anti-PD-1, or haemotoxylin and eosin (H&E). Slides were digitally scanned for analysis using Aperio ImageScope software (Leica Biosystems, Buffalo Grove, Ill.). Four fields of view were analyzed per tumor at 20× magnification, with all positively stained cells counted within the field and averaged across fields. The investigator was blinded with respect to the animal groups to avoid bias during counting. Fields of view were chosen to avoid the tumor periphery and processing artifacts.
At the time of sacrifice, blood was obtained by cardiac puncture from MC38 tumor growing animals and collected into Greiner Bio-One MiniCollect Capillary Blood collection system tubes. Tubes were centrifuged as per manufacturer's instructions to separate serum from blood cells. The serum was frozen at […] and subsequently used, to obtain a comprehensive serum chemistry panel, develop by IDEXX Laboratories (Westbrook, Me.), for use in the UCLA Division of Laboratory Animal Medicine (DLAM).

N#Cc1ccc2[nH]c(O)c(-c3ccc(CN4CCOCC4)cn3)c2c1 [AZD1080]
tolerability on dose escalation (weight loss, behavior, mortality, adverse events) [1]: devoid of significant weight loss, abnormal behavior or posture, mortality or other adverse events
toxicity leading to discontinuation in phase I clinical trial [2]: nephrotoxicity
number of tumor-free animals at time of sacrifice (out of 15) (MC38 colon cancer; MC38, three administrations, n=15 per group): 3/15
tumor growth inhibition in MC38 (significance vs saline) (MC38 colon cancer; three administrations every three days, sAZD1080 5 mg/kg IV, free AZD1080 5 mg/kg IP, SB415286 8 mg/kg IP, anti-PD-1 4 mg/kg IP, n=15): no significant effect on tumor growth inhibition
reduction in Pdcd1 mRNA expression (Pdcd1 expression): ~6 fold
albumin:globulin ratio [3]: depress
blood chemistry panel (overall) [3]: more variation in blood chemistry
total bilirubin and BUN levels [3]: reductions
